{"source": "paper PMC7571063", "about": "“High-Resolution Mass Spectrometry-Based Approaches for the Detection and Quantification of Peptidase Activity in Plasma” (Molecules, 2020)", "system": "proteases in pooled pig plasma", "experiment": "Multiplex substrate profiling by mass spectrometry (MSP-MS) of pig plasma with the 228-member tetradecapeptide library", "conditions": "pooled pig plasma ~50-fold diluted to 1 mg/mL protein, DPBS 1 mM DTT, room temperature, 15 and 60 min, LC-MS/MS, triplicate", "note": "“Also recorded” adds a separate entry of the source.", "text": "To quantify proteolytic activity in plasma samples obtained from healthy pigs, we used the MSP-MS assay, which is a global and unbiased substrate-based protease profiling approach. This assay uses a physicochemically diverse library of peptides as substrates for proteases present in a biological sample. Tandem mass spectrometry is used to quantify protease-derived peptide cleavage products. These substrates were designed to contain a unique dipeptide at each terminus (position 1–2 and 13–14) to profile exo-acting proteases and a central decapeptide sequence (position 3–12) consisting of all combinations of neighbor and near-neighbor amino acid pairs that are used to profile endoproteases [10].\nEqual volumes of plasma from six pigs were mixed and then diluted to a final concentration of 1 mg/mL protein in assay buffer and mixed with the synthetic peptides. This dilution of ~50-fold reduced the concentration of plasma proteins and peptides in the assay that could interfere with the quantification of the synthetic peptides. Cleavage of synthetic peptides by proteases in neat plasma was predicted to occur in minutes and therefore dilution of plasma decreases the concentration of all proteases so that activity could be monitored at two time intervals over the course of an hour-long assay. This allowed us to detect and quantify peptide cleavage products after 15 and 60 min incubations. […]"}
{"sequence": "FRIHGFDEAHNAWM", "values": [{"measurement": "cleavage site of the library peptide by pig plasma proteases", "value": "cleaved between His-Asn; also recorded: cleaved between Ala-Trp"}]}
